Assay results published in patent KR20140065554A, “안토시아닌을 포함하는 항염용 조성물” (대한민국(농촌진흥청장), priority 2012, dated 2014).

Columns and labels:
Format in all cases: cell-based
[1] = tested on: LPS-induced NO production in RAW 264.7 (RAW 264.7에서 LPS로 유도된 NO 생성); experiment: Inhibition of LPS-induced NO production in RAW 264.7; conditions: p<0.05
[2] = tested on: LPS-induced NO production (LPS로 유도되는 NO의 생성); experiment: Anti-inflammatory effect assay of peak 2 anthocyanin: inhibition of LPS-induced NO production; conditions: p<0.05
HepG2 = experiment: Protective effect against hydrogen peroxide (H2O2, 0.9 mM)-induced oxidative stress in HepG2; conditions: HepG2, H2O2 0.9mM, p<0.05

Row | Compound | inhibition of LPS-induced NO production [1] | inhibition at 1 µM ([2]; 1uM) [%] | inhibition at 10 µM ([2]; 10uM) [%] | cell protective effect against H2O2-induced oxidative stress (HepG2)
1 | COc1cc(-c2[o+]c3cc(O)cc(O[C@@H]4O[C@H](CO)[C@@H](O)[C@H](O)[C@H]4O)c3cc2O[C@@H]2O[C@H](CO)[C@@H](O)[C@H](O)[C@H]2O[C@@H]2O[C@H](CO)[C@@H](O)[C@H](O)[C@H]2O)ccc1O (single isomer, unassigned) [Peak 2, Peonidin-3-sophoroside-5-glucoside] | 유의적으로 저해하였다 | 8 | 15 | –
2 | COc1cc(-c2[o+]c3cc(O)cc(O[C@@H]4O[C@H](CO)[C@@H](O)[C@H](O)[C@H]4O)c3cc2O[C@@H]2O[C@H](COC(=O)/C=C/c3ccc(O)c(O)c3)[C@@H](O)[C@H](O)[C@H]2O[C@@H]2O[C@H](COC(=O)/C=C/c3ccc(O)c(O)c3)[C@@H](O)[C@H](O)[C@H]2O)ccc1O (single isomer, unassigned) [Peak 12, Peonidin 3-(6", 6"'-dicaffeoyl sophoroside)-5-glucoside] | – | – | – | 유의적인 세포 보호 효과를 보였다
3 | Peonidin 3-p-hydroxybenzoyl sophoroside-5-glucoside [Peak 4] | 유의적으로 저해하였다 | – | – | –
